# Data: US20070037263A1, “Novel acetoacetyl-coa reductase and process for producing optically active alcohol” (priority 2003, published 2007)
# System: RAX (acetoacetyl-CoA reductase)
# Test: Ethyl 4-chloroacetoacetate reducing activity of RAX in the presence of inhibitors
# Assay type: biochemical
# Conditions: inhibitor 0.01 mM; 10 mM ethyl 4-chloroacetoacetate, 0.25 mM NADPH, pH 6.5, 30° C., 3 minutes; activity without inhibitor = 100%
row,Structure (SMILES),Relative activity [%]
1,"[Cl][Hg][Cl] [HgCl2, mercury chloride]",0

# Same assay, conditions: inhibitor 0.1 mM; 10 mM ethyl 4-chloroacetoacetate, 0.25 mM NADPH, pH 6.5, 30° C., 3 minutes; activity without inhibitor = 100%
row,Structure (SMILES),Relative activity [%]
1,"O=[N+]([O-])[O-].[Ag+] [AgNO3, silver nitrate]",0

# Same assay, conditions: inhibitor 1.0 mM; 10 mM ethyl 4-chloroacetoacetate, 0.25 mM NADPH, pH 6.5, 30° C., 3 minutes; activity without inhibitor = 100%
row,Structure (SMILES),Relative activity [%]
1,"O=S(=O)([O-])[O-].[Cu+2] [CuSO4, copper sulfate]",0
2,O=S(=O)([O-])[O-].[Mg+2] [MgSO4],100
3,[Cl][Mn][Cl] [MnCl2],97
4,CCN1C(=O)C=CC1=O [N-Ethylmaleimide],103
5,O=S(=O)(F)Cc1ccccc1 [Phenylmethylsulfonyl fluoride],108
6,O=S(=O)([O-])[O-].[Zn+2] [ZnSO4],81
7,O=C(O)c1cc[c]([Hg][Cl])cc1 [p-Chloromercuribenzoic acid],0

# Same assay, conditions: pH 6.5
row,Structure (SMILES),Relative activity [%]
1,[Cl-].[Cl-].[Co+2] [CoCl2],108
2,O=C(O)CN(CCN(CC(=O)O)CC(=O)O)CC(=O)O [EDTA],83
3,O=C(O)CI [Iodoacetic acid],98

# Same assay, conditions: summary of Table 1
row,Structure (SMILES),enzyme activity inhibited (in words)
1,"O=[N+]([O-])[O-].[Ag+] [AgNO3, silver nitrate]",inhibited
2,"O=S(=O)([O-])[O-].[Cu+2] [CuSO4, copper sulfate]",inhibited
3,"[Cl][Hg][Cl] [HgCl2, mercury chloride]",inhibited
4,O=C(O)c1cc[c]([Hg][Cl])cc1 [p-Chloromercuribenzoic acid],inhibited
